Experimental data as given in article PMC8266621 (2021).
Values belong to the compound of their own block, whether it stands above or below them.

Experiments:
[1] = test system: 46 nt NMT1 RNA (GAAA loop), wild-type xanthine riboswitch (RNA, riboswitch) GGAGUAGAAGCGUUCAGCGGCCGAAAGGCCGCCCGGAAAUUGCUCC; experiment: ITC; conditions: K+ 50 mM, Mg2+ 10 mM, 50 mM Tris pH 8.0, 25 °C; for Kd: RNA titrated into 0.1 mM ligand; for binding: RNA (1.4 mM stock) titrated into 0.1 mM ligand, N.D.
[2] = test system: original sequence (GCCC loop) of the xanthine riboswitch (RNA, riboswitch) GGAGUAGAAGCGUUCAGCGGCCGCCCGGCCGCCCGGAAAUUGCUCC; experiment: ITC; conditions: K+ 50 mM, Mg2+ 10 mM; 50 mM Tris pH 8.0, 25 °C; RNA titrated into 0.1 mM ligand
[3] = test system: A9C (RNA, riboswitch) GGAGUAGACGCGUUCAGCGGCCGAAAGGCCGCCCGGAAAUUGCUCC; experiment: ITC; conditions: K+ 50 mM, Mg2+ 10 mM; 50 mM Tris pH 8.0, 25 °C; RNA (1.4 mM stock) titrated into 0.1 mM ligand
[4] = test system: A16G (RNA, riboswitch) GGAGUAGAAGCGUUCGGCGGCCGAAAGGCCGCCCGGAAAUUGCUCC; experiment: ITC; conditions: K+ 50 mM, Mg2+ 10 mM; 50 mM Tris pH 8.0, 25 °C; 4-fold less affinity
[5] = test system: A8Ap (RNA, riboswitch, 2-aminopurine at 8) GGAGUAGAAGCGUUCAGCGGAAACGCCCGGAAAUUGCUCC; experiment: 2-aminopurine fluorescence; conditions: K+ 100 mM, Mg2+ 20 mM; 100 mM Tris-HCl pH 8.4, 20 °C; 0.5 μM RNA, 3 mM xanthine; qualitative
[6] = test system: C11U-G35A (RNA, riboswitch) GGAGUAGAAGUGUUCAGCGGCCGAAAGGCCGCCCAGAAAUUGCUCC; experiment: ITC; conditions: K+ 50 mM, Mg2+ 10 mM; 50 mM Tris pH 8.0, 25 °C; RNA (1.4 mM stock) titrated into 0.1 mM ligand
[7] = test system: U40C (RNA, riboswitch) GGAGUAGAAGCGUUCAGCGGCCGAAAGGCCGCCCGGAAACUGCUCC; experiment: ITC; conditions: K+ 50 mM, Mg2+ 10 mM; 50 mM Tris pH 8.0, 25 °C; RNA (1.4 mM stock) titrated into 0.1 mM ligand
[8] = test system: G10C (RNA, riboswitch) GGAGUAGAACCGUUCAGCGGCCGAAAGGCCGCCCGGAAAUUGCUCC; experiment: ITC; conditions: K+ 50 mM, Mg2+ 10 mM; 50 mM Tris pH 8.0, 25 °C; RNA (1.4 mM stock) titrated into 0.1 mM ligand
[9] = test system: G7A-A8G (RNA, riboswitch) GGAGUAAGAGCGUUCAGCGGCCGAAAGGCCGCCCGGAAAUUGCUCC; experiment: ITC; conditions: K+ 50 mM, Mg2+ 10 mM; 50 mM Tris pH 8.0, 25 °C; RNA (1.4 mM stock) titrated into 0.1 mM ligand
[10] = test system: G10C-U40A (RNA, riboswitch) GGAGUAGAACCGUUCAGCGGCCGAAAGGCCGCCCGGAAAAUGCUCC; experiment: ITC; conditions: K+ 50 mM, Mg2+ 10 mM; 50 mM Tris pH 8.0, 25 °C; RNA (1.4 mM stock) titrated into 0.1 mM ligand
[11] = test system: A8C (RNA, riboswitch) GGAGUAGCAGCGUUCAGCGGCCGAAAGGCCGCCCGGAAAUUGCUCC; experiment: ITC; conditions: K+ 50 mM, Mg2+ 10 mM; 50 mM Tris pH 8.0, 25 °C; RNA (1.4 mM stock) titrated into 0.1 mM ligand
[12] = test system: G10A (RNA, riboswitch) GGAGUAGAAACGUUCAGCGGCCGAAAGGCCGCCCGGAAAUUGCUCC; experiment: ITC; conditions: K+ 50 mM, Mg2+ 10 mM; 50 mM Tris pH 8.0, 25 °C; RNA (1.4 mM stock) titrated into 0.1 mM ligand
[13] = test system: C34U (RNA, riboswitch) GGAGUAGAAGCGUUCAGCGGCCGAAAGGCCGCCUGGAAAUUGCUCC; experiment: ITC; conditions: K+ 50 mM, Mg2+ 10 mM; 50 mM Tris pH 8.0, 25 °C; 3- to 4-fold decrease
[14] = test system: C34A (RNA, riboswitch) GGAGUAGAAGCGUUCAGCGGCCGAAAGGCCGCCAGGAAAUUGCUCC; experiment: ITC; conditions: K+ 50 mM, Mg2+ 10 mM; 50 mM Tris pH 8.0, 25 °C; comparable to wild-type
[15] = test system: A6Ap (RNA, riboswitch, 2-aminopurine at 6) GGAGUAGAAGCGUUCAGCGGAAACGCCCGGAAAUUGCUCC; experiment: 2-aminopurine fluorescence; conditions: K+ 100 mM, Mg2+ 20 mM; 100 mM Tris-HCl pH 8.4, 20 °C; 0.5 μM RNA, 3 mM xanthine; qualitative
[16] = test system: G12A (RNA, riboswitch) GGAGUAGAAGCAUUCAGCGGCCGAAAGGCCGCCCGGAAAUUGCUCC; experiment: ITC; conditions: K+ 50 mM, Mg2+ 10 mM; 50 mM Tris pH 8.0, 25 °C; 7-fold decrease
[17] = test system: A8U (RNA, riboswitch) GGAGUAGUAGCGUUCAGCGGCCGAAAGGCCGCCCGGAAAUUGCUCC; experiment: ITC; conditions: K+ 50 mM, Mg2+ 10 mM; 50 mM Tris pH 8.0, 25 °C; RNA (1.4 mM stock) titrated into 0.1 mM ligand
[18] = test system: G12Ap (RNA, riboswitch, 2-aminopurine at 12) GGAGUAGAAGCGUUCAGCGGAAACGCCCGGAAAUUGCUCC; experiment: 2-aminopurine fluorescence; conditions: K+ 100 mM, Mg2+ 20 mM; 100 mM Tris-HCl pH 8.4, 20 °C; 0.5 μM RNA, 3 mM xanthine; qualitative
[19] = test system: G7Ap (RNA, riboswitch, 2-aminopurine at 7) GGAGUAGAAGCGUUCAGCGGAAACGCCCGGAAAUUGCUCC; experiment: 2-aminopurine fluorescence; conditions: K+ 100 mM, Mg2+ 20 mM; 100 mM Tris-HCl pH 8.4, 20 °C; 0.5 μM RNA, 3 mM xanthine; qualitative
[20] = test system: C34G (RNA, riboswitch) GGAGUAGAAGCGUUCAGCGGCCGAAAGGCCGCCGGGAAAUUGCUCC; experiment: ITC; conditions: K+ 50 mM, Mg2+ 10 mM; 50 mM Tris pH 8.0, 25 °C; 3- to 4-fold decrease
[21] = test system: C11G (RNA, riboswitch) GGAGUAGAAGGGUUCAGCGGCCGAAAGGCCGCCCGGAAAUUGCUCC; experiment: ITC; conditions: K+ 50 mM, Mg2+ 10 mM; 50 mM Tris pH 8.0, 25 °C; RNA (1.4 mM stock) titrated into 0.1 mM ligand
[22] = test system: A16G/C33U (RNA, riboswitch) GGAGUAGAAGCGUUCGGCGGCCGAAAGGCCGCUCGGAAAUUGCUCC; experiment: ITC; conditions: K+ 50 mM, Mg2+ 10 mM; 50 mM Tris pH 8.0, 25 °C; 4-fold less affinity
[23] = test system: C11G-G35C (RNA, riboswitch) GGAGUAGAAGGGUUCAGCGGCCGAAAGGCCGCCCCGAAAUUGCUCC; experiment: ITC; conditions: K+ 50 mM, Mg2+ 10 mM; 50 mM Tris pH 8.0, 25 °C; RNA (1.4 mM stock) titrated into 0.1 mM ligand
[24] = test system: G35C (RNA, riboswitch) GGAGUAGAAGCGUUCAGCGGCCGAAAGGCCGCCCCGAAAUUGCUCC; experiment: ITC; conditions: K+ 50 mM, Mg2+ 10 mM; 50 mM Tris pH 8.0, 25 °C; RNA (1.4 mM stock) titrated into 0.1 mM ligand
[25] = test system: U40A (RNA, riboswitch) GGAGUAGAAGCGUUCAGCGGCCGAAAGGCCGCCCGGAAAAUGCUCC; experiment: ITC; conditions: K+ 50 mM, Mg2+ 10 mM; 50 mM Tris pH 8.0, 25 °C; RNA (1.4 mM stock) titrated into 0.1 mM ligand

Kd [1]: 3.0 ± 0.1 µM
SMILES: O=c1[nH]c(=O)c2[nH]nnc2[nH]1

Kd [2]: 3.6 ± 0.3 µM | binding [3]: no | binding [4]: yes | binding [5]: yes | binding [6]: no | binding [7]: no | binding [8]: no | binding [9]: no | binding [10]: no | Kd [1]: 4.4 ± 0.2 µM | binding [11]: no | binding [12]: no | binding [13]: yes | binding [14]: yes | binding [15]: yes | binding [16]: yes | binding [17]: no | binding [18]: yes | binding [19]: yes | binding [20]: yes | binding [21]: no | binding [22]: yes | binding [23]: no | binding [24]: no | binding [25]: no
SMILES: O=c1[nH]c(=O)c2[nH]cnc2[nH]1

Kd [1]: 20.4 ± 1.7 µM
SMILES: O=c1[nH]c(=O)c2[nH]c(=O)[nH]c2[nH]1

The remaining lines, values behind:

SMILES: O=c1[nH]cnc2c1ncn2[C@@H]1O[C@H](CO)[C@@H](O)[C@H]1O
binding [1]: no

SMILES: Nc1ncnc2[nH]cnc12
binding [1]: no

SMILES: O=c1[nH]cnc2nc[nH]c12
binding [1]: no

SMILES: Nc1ncnc2c1ncn2[C@@H]1O[C@H](CO)[C@@H](O)[C@H]1O
binding [1]: no
